From publication PMC7507803 (ACS Pharmacology & Translational Science, 2020)
Residues, ends and D or L forms follow the SMILES beside them. *: point of attachment. AMC = Cc1cc(=O)oc2cc(N*)ccc12; Boc = CC(C)(C)OC(=O)*

Legend:
trypsin = conditions: cited from earlier work
[1] = cited from earlier work
SARS-CoV = conditions: mouse, in vivo; cited from earlier work
[2] = target: Recombinant Human TMPRSS2 (Homo sapiens, UniProt O15393); experiment: TMPRSS2 fluorogenic biochemical assay
prostasin = conditions: cited from earlier work
TMPRSS2 (aa 148–492) = conditions: TMPRSS2 biochemical screen; cited from earlier work
[3] = system: SARS-CoV-2-S-mediated pseudotyped particle entry; conditions: cited from earlier work

Chain of Recombinant Human TMPRSS2 (O15393 106-492): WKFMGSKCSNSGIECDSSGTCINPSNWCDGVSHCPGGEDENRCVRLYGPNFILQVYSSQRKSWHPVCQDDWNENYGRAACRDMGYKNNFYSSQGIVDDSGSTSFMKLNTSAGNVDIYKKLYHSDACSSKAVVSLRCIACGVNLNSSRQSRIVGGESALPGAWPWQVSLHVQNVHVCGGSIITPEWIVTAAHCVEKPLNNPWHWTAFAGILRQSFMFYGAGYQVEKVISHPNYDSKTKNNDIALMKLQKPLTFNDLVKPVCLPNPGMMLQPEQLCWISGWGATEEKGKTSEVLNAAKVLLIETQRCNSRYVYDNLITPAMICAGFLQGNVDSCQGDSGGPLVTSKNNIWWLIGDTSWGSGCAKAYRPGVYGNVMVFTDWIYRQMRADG

## CN(C)C(=O)COC(=O)Cc1ccc(OC(=O)c2ccc(NC(=N)N)cc2)cc1 [camostat]
trypsin
  IC50: ~0.05 µM
[1]; plasma
  t1/2 of hydrolysis in plasma: < 1 min
SARS-CoV
  SARS-CoV pathogenesis: mitigated SARS-CoV pathogenesis

## Cc1cc(=O)oc2cc(NC(=O)[C@H](CCCNC(=N)N)NC(=O)[C@H](C)NC(=O)[C@H](CCC(N)=O)NC(=O)OC(C)(C)C)ccc12 [Boc-Gln-Ala-Arg-AMC] (Boc-Gln-Ala-Arg-{AMC})
[2]; 60 min, peptide 10 μM, TMPRSS2 1 μM, Tris-HCl pH8
  released AMC: 27%

## N=C(N)Nc1ccc(C(=O)O)cc1 [4-guanidinobenzoic acid]
prostasin
  inhibition of prostasin: do not inhibit

## N=C(N)Nc1ccc(C(=O)Oc2ccc(CC(=O)O)cc2)cc1 [FOY-251, 4-(4-guanidinobenzoyloxy)phenylacetic acid]
[1]
  mean terminal half-life: 60 min

## N=C(N)c1ccc2cc(OC(=O)c3ccc(N=C(N)N)cc3)ccc2c1 [nafamostat]
[1]; IV infusion
  plasma half-life (t1/2): about 23 min

## Nc1c(Br)cc(Br)cc1CN[C@H]1CC[C@H](O)CC1 [ambroxol]
[2]; 40 μM, data not shown
  TMPRSS2 inhibition: did not show any TMPRSS2 inhibition

## CN(Cc1cc(Br)cc(Br)c1N)C1CCCCC1 [bromhexine]
[2]; dose–response, listed as Bromhexine hydrochloride
  inhibition of TMPRSS2: no inhibition
TMPRSS2 (aa 148–492)
  IC50: 0.75 µM
[3]
  inhibition of pseudotyped particle entry: lack of inhibiting SARS-CoV-2-S-mediated pseudotyped particle entry

## N=C(N)c1ccc2cc(O)ccc2c1 [6-amidino-2-naphthol]
prostasin
  inhibition of prostasin: do not inhibit
